Measurements: patent publication US12227747B2, “Composition comprising aptamer as active ingredient for treatment and prevention of degenerative brain disease” (Nexmos Co., LTD, priority 2018, dated 2025)

Key:
[1] = Fluorescence-based microplate assay (OPDA) of ascorbic acid oxidation; type: physicochemical
Source text: (§1) FIGS. 4-5 is a diagram showing a fluorescence-based microplate assay that inhibits ascorbic acid oxidation, and FIG. 4 is an experimental result using OPDA, a substance that becomes fluorescent by binding to DHA. […] FIG. 5 is a comparison of the antioxidant activity of remaining ascorbic acid using DCPIP after AptaminC3T31+ascorbic acid and ascorbic acid were left for 8 weeks under the same conditions. AptaminC3T31+ascorbic acid maintained 50% antioxidant activity even after 8 weeks,
The oxidation of ascorbic acid was measured in reverse with detecting the oxidized product dehydroascorbic acid (DHA) with modifying a method described in Vislisel et al. (Vislisel, J. M. Schafer, F. O. and Buettner, G. R. (2007) Analytical biochemistry, 365, 31-39).
Briefly, aptamers were incubated with AA (10.3 μM) at 4× concentration for 30 minutes at room temperature before addition of 25 μM H2O2 (Sigma). Before the addition of OPDA dye (Sigma), the oxidizing agent sample was added and incubated at room temperature for 10 minutes. Immediately after addition of the dye (954.6 μM) sample, and read at excitation 345 nm; emission: 425 nm with a SpectraMax® plate reader (Molecular Devices) for 45 minutes at intervals of 60 seconds until the control converges. […] All fluorescence assays were performed in black 384-well plates (greiner bio-one). […]

[2] = Storage of vitamin C with aptamer at room temperature for 8 weeks, reducing activity by DCPIP; type: physicochemical; details: FIG. 5
Source text: as §1
The aptamin C of the present invention was maintained at room temperature for 8 weeks and the reducing activity of ascorbic acid was measured using DCPIP (2,6-Dichlorophenolindophenol).

[3] = ITC (Isothermal Titration calorimetry) of the aptamer binding to ascorbic acid; details: FIG. 7, read-out: binding affinity between the aptamer and ascorbic acid

In the case of “AptaminC3T31: DNA aptamer binding vitamin C (ascorbic acid); SEQ ID NO: 1, GTGGAGGCGGTGGCCAGTCTCGCGGTGGCGGC (DNA GTGGAGGCGGTGGCCAGTCTCGCGGTGGCGGC; listed as DNA, chemistry not given here)”, the “oxidation of ascorbic acid (DHA detected with OPDA fluorescence)” value ([1]; ascorbic acid treated with hydrogen peroxide, FIG. 4) is reported as “oxidation of ascorbic acid is prevented”, the “ability to protect AA from oxidation” value ([1]; screen of top 20 candidate aptamers from SELEX) is reported as “best effect” and the “increase of shelf life compared to ascorbic acid alone” value [2] is reported as no less than 4 times. It also gave a Kd [3] of 900 nM.
